Assay results reported in patent US11571484B2, “Compositions that target tumor-associated macrophages and methods of use therefor” (Sanford Burnham Prebys Medical Discovery Institute, priority 2017, dated 2023).
Ends that are not written are not given here. FAM = 5(6)-carboxyfluorescein; Ahx = NCCCCCC(=O)O

Columns and labels:
[1] = test system: MRC1/CD206-expressing tumor-associated macrophages (MEMs) in 4T1 tumors; assay: Free peptide homing and immunofluorescence in the orthotopic 4T1 breast tumor model; settings: 30 nmoles i.v.
Experimental: (SEQ ID NO: 5) control peptide were injected intravenously into 4T1 tumor-bearing mice and allowed to circulate for 2 h. Mice were then sacrificed and tumor and tissues were analyzed by immunofluorescence using rabbit anti-FAM (green) and rat anti-CD206 or rat anti-TIE2 (red) antibodies, and counterstained with DAPI. All images were taken under the same imaging conditions. FAM-UNO accumulated in macrophages within tumors and lymph nodes positive for CD206 staining (A, B, C) and TIE2 (D, and H: Blow up of D). […] To ascertain that anti-CD206 is capable of detecting CD206 in the liver, an image was acquired with longer exposure time from an uninjected animal (FIG. 25). […] Green: FAM-peptide; Red: CD206 or TIE2, Blue: DAPI. Representative fields from multiple sections prepared from at least 3 tumors (n≥3 mice) are shown.
Tumor models were induced according to protocols approved by the Estonian Ministry of Agriculture, Committee of Animal Experimentation (permit #48). For the 4T1 breast model, 8-week old female Balb/c mice were injected in the mammary fat pad with 10^6 cells dispersed in 50 μL of PBS. For homing studies, mice were used 10 days later, when the tumor had reached ˜150 mm^3. For MCF-7 breast model, 8-week old female nude mice were implanted with an estrogen pellet, and 1 week later inoculated with 5×10^6 MCF-7 cells in 100 μL of cold Matrigel (BD Biosciences, CA, USA). Mice were used for homing studies three weeks later (tumor volume˜150 mm^3). For the metastatic gastric carcinoma, 10^6 MKN45-P cells in PBS were injected intraperitoneally in 8-week old female nude mice. Mice were used for homing studies two weeks later. For the metastatic melanoma model, 2×10^5 B16F10 cells were injected intravenously in 100 μL of PBS in C57 BL6 mice. The mice were used for homing studies 10 days after. For the angiogenic glioblastoma model, WT-GBM 24, 7×10^5 cells were stereotactically injected in the right striatum of Fox/Nu mice 2 mm lateral and posterior of bregma of 2.5 mm deep. The mice were used for homing studies 6-7 days after the injection.
For free peptide homing studies, mice were injected intravenously with 30 nmoles of FAM-peptides in 100 μL of PBS. For nanoparticle homing studies-FAM-UNO—NP-PTX-, mice were injected intravenously in mice bearing MCF-7 breast tumors with 1 mg of Polymer in 100 μL pf PBS and allowed to circulate for 6 h. For tissue collection, the mice were anesthetized and the tissues collected and immediately placed in 4% cold PFA and left overnight at 4-C. Tissues were washed with PBS for 2 h at room temperature and cryoprotected with sucrose 15% at 4-C overnight and then in sucrose 30% at 4·C overnight. The tumor and the control organs were placed together in the same block with OCT compound (Leica Biosystems, Wetzlar, Germany), snap-frozen in isopentane, and sectioned at 10 μm. FAM was detected using Rabbit anti-FITC (Invitrogen, CA, USA. Catalog # A-889) at a dilution of 1/100 and using Alexa Fluor-546 anti-rabbit antibody (Invitrogen, Ca, USA. Catalog # A-11035) at a dilution of 1/200. CD31 was detected using rat anti-mouse CD31 (BD Biosciences, CA, USA. Catalog #: 553370), TIE2 was detected using rat anti-mouse TIE2 (Biolegend, CA, USA. Catalog #124001), CD209 was detected using rat anti-mouse CD209 (Biolegend, CA, USA. Catalog #147802), HLA ABC was detected using rat anti Human HLA ABC (Bio-Rad, CA, USA. Product code MCA485G), and CD206 was detected using ratanti-mouse CD206 (Bio-Rad, CA, USA. Product code MCA2235GA); using 1/100 primary antibody dilution and Alexa Fluor-647 anti-Rat antibody (Invitrogen, CA, USA. Catalog #21247) at 1/200 dilution. To quantify FAM signal from confocal images, the green channel of images taken by using 20× magnification objective was opened with ImageJ, converted to 8-bit grayscale and the integrated pixel intensity was measured. Different regions of tumors from three different mice were used.

[2] = test system: intestinal tissue (CD209) and lymph nodes of healthy mice; assay: Free peptide homing in healthy Balb/C mice; format: in vivo, mouse; settings: 30 nmoles i.v., 2 h
Experimental: A, Thirty nmoles of FAM-UNO were injected intravenously in healthy Balb/C mice. Peptide was allowed to circulate for 2 hours. Mice were then sacrificed and intestinal tissue was analyzed by immunofluorescence using rabbit anti-FAM (green) together with rat anti-CD209 (red) and counterstained with DAPI. B, Thirty nmoles of FAM-UNO were injected intravenously in mice bearing 4T1 tumors, 10 days after orthotopic inoculation of 10^6 Cells. Peptide was let to circulate for two hours, mice were then sacked and tumor and tissues analyzed by immunofluorescence using rabbit Anti-FAM (green) together with rat anti-CD209 (red) and counterstained with DAPI (Blue). Images in A and B were taken using the same imaging conditions. Scale bar: 50 μm (images in B are at the same scale as in A). Representative images from n=3 mice.
Thirty nmoles of FAM-UNO were injected intravenously in healthy Balb/C female mice. Peptide was allowed to circulate for 2 hours. Mice were then sacrificed, and inguinal lymph node and kidney analyzed by immunofluorescence using rabbit anti-FAM together with rat anti-CD206 (red, 2901) and counterstained with DAPI (blue). FAM-UNO is absent from the healthy inguinal lymph node (left panel), while some CD206 is observed (2901). In the kidney (right panel), the FAM fluorescence signal is detected throughout the tissue. Scale bars: 100 μm. Representative images from n=3 mice.

| Substance | accumulation in MEMs / tumor homing ([1]; 2 h circulation) | time the signal remained readily detectable in MEMs after administration [1] | accumulation in liver, heart, lungs and spleen ([1]; 2 h) | internalization in MEMs (high resolution confocal microscopy) ([1]; 2 h) | overlap with CD209 in sections from 4T1 tumors ([1]; 2 h) | cells positive for FAM-UNO that were also positive for CD206, in tumors ([1]; 2 h circulation) | FAM fluorescence in the kidneys ([1]; 2 h time point) | homing to lymph nodes of healthy mice [2] | recruitment to intestinal tissue (expresses CD209) of healthy mice [2] |
| --- | --- | --- | --- | --- | --- | --- | --- | --- | --- |
| FAM-CSPGAK: FAM-labeled linear CSPGAK (SEQ ID NO: 6) (not fully specified; FAM label) | accumulated in MEMs in orthotopic 4T1 breast tumor-bearing mice at levels comparable to FAM-UNO | – | – | – | – | – | – | – | – |
| FAM-UNO: FAM-labeled UNO peptide CSPGAKVRC (SEQ ID NO: 1); 5(6)-carboxyfluorescein with 6-aminohexanoic acid spacer at the N-terminus ({FAM-Ahx}-CSPGAKVRC; cysteine pairing not given here) | accumulated in MEMs in tumors and in sentinel lymph nodes | up to 12 h | low | internalized in MEMs | only a moderate overlap with CD209 | 96% | FAM-fluorescence was observed in the kidneys | did not home to the lymph nodes of healthy Balb/C mice | not recruited to intestinal tissue of healthy mice |
